The test system of series [1] is Lactiplantibacillus plantarum 1,5-anhydroglucitol-6-phosphate isomerase LpYbiW (Uniprot A0A807DR53), SEQ ID NO: 2. As to the kind of experiment: Michaelis-Menten kinetics of LpYbiW, coupled with LpFsaA and EcGldA, NADH consumption at A340nm. The format is biochemical. Particulars: 100 nM activated LpYbiW, 20 mM Tris/HCl pH 7.5, 100 mM KCl, 5 µM LpFsaA, 5 µM EcGldA, 0.4 mM NADH, anaerobic glove box; substrate 1,5-anhydroglucitol-6-phosphate at varying concentrations. On the procedure:
Continuous-wave X-band EPR spectroscopy was used to characterize the LpYbiW glycyl radical. A reaction system (200 µL) containing 20 mM Tris/HCl, (pH 7.5), 100 mM KCl, 100 µM titanium(III) citrate, 1 mM SAM, 80 µM reconstituted LpYbiY, and 40 µM LpYbiW was incubated for 15 minutes at room temperature in a glove box. 10% glycerol was added, and a resulting mixture was loaded into an EPR tube (Wilmad Lab Glass, 734-LPV-7) with an outer diameter of 4 mm and a length of 8 inches. The tube was sealed with a rubber stopper, removed from the glove box, and frozen using liquid nitrogen before EPR analysis. The experimental spectrum of the glycyl radical was modeled using Bruker Xepr spin fitting to obtain g-values, hyperfine coupling constants, and line widths. Double integration of the simulated spectrum was used to measure the spin concentration. […]
The Michaelis-Menten kinetic parameters of LpYbiW were determined by coupling with LpFsaA and EcGldA. The reaction rate of LpYbiW was monitored by measuring NADH consumption at A340nm. The absorbance change of the reaction system at 340 nm was measured every 5 seconds using the cuvette mode of an ultra-micro UV-visible spectrophotometer (Nanophotometer) in a glove box (1 cm light path). […]

The target in series [2] is T1, Escherichia coli strain K12 1,5-anhydromannitol-6-phosphate isomerase EcPflD (Uniprot P32674), SEQ ID NO: 98 (Escherichia coli, UniProt P32674).
T1 sequence (P32674 1-765): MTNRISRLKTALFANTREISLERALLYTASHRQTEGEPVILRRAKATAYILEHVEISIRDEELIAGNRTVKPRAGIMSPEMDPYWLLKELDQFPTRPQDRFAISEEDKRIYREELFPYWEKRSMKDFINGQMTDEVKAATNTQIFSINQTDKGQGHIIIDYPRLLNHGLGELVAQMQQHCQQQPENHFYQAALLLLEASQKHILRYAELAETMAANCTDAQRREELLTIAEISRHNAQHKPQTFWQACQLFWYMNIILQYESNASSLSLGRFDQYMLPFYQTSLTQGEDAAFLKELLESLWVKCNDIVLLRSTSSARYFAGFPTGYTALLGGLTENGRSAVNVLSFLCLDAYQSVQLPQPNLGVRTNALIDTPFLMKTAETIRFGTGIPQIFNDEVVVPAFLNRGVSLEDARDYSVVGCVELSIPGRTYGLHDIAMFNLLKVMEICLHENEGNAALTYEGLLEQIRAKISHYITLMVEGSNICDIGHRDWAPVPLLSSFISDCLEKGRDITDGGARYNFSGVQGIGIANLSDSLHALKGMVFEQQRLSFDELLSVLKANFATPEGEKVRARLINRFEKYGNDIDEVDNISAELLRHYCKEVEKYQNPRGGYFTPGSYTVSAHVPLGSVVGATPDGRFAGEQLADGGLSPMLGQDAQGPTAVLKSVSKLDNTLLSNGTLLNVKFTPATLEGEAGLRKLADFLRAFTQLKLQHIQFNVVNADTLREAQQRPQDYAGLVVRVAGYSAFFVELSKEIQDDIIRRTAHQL
As to the kind of experiment: Michaelis-Menten kinetics of EcPflD, coupled with EcFsaB and EcGldA, decrease in A340nm. It is filed as biochemical. Particulars: 40 nM activated EcPflD, 20 mM Tris/HCl pH 7.5, 100 mM KCl, 2 µM EcFsaB, 2 µM EcGldA, 0.4 mM NADH, anaerobic glove box; substrate 1,5-AM-6P at various concentrations. On the procedure:
(§1) The EcPflD glycine radical was characterized using continuous-wave X-band electron paramagnetic resonance (EPR) spectroscopy. A reaction system (200 µL) containing 20 mM Tris/HCl, (pH 7.5), 100 mM KCl, 100 µM titanium(III) citrate, 1 mM SAM, 80 µM reconstituted EcPflC, and 40 µM EcPflD was incubated for 15 minutes at room temperature in a glove box. Glycerol (10%) was added, and a resulting mixture was transferred to an EPR tube with an outer diameter of 4 mm and a length of 8 inches (Wilmad Lab Glass, 734-LPV-7). The tube was sealed with a rubber stopper, removed from the glove box, and frozen in liquid nitrogen prior to EPR analysis. […]
(§2) A reaction mixture containing 20 mM Tris/HCl, (pH 7.5), 100 mM KCl, 10 mM 1,5-AM-6P, 40 nM activated EcPflD, 5 µM EcFsaB, 5 µM EcGldA, and 0.4 mM NADH was incubated in a 1 cm Eppendorf cuvette in a glove box at room temperature. Absorbance at 340 nm was monitored every 5 seconds using a cuvette mode of an ultra-micro UV-Vis spectrophotometer (Hangzhou Miu Instruments Co., Ltd.) inside the glove box. […]
(§3) The reaction system containing 20 mM Tris/HCl, (pH 7.5), 100 mM KCl, 40 nM activated EcPflD and 1,5-AM-6P with various substrate concentrations, 2 µM EcFsaB, 2 µM EcGldA, and 0.4 mM NADH was measured using a cuvette mode of an ultra-micro UV-Vis spectrophotometer (Hangzhou Miu Instruments Co., Ltd.) in a 1 cm Eppendorf cuvette inside a glove box. […]

Substrate in series [3]: O=P(O)(O)OC[C@H]1OC[C@@H](O)[C@@H](O)[C@@H]1O
The series is described as above. It is filed as biochemical, Escherichia coli strain K12. Particulars: other: 40 nM activated EcPflD, 20 mM Tris/HCl pH 7.5, 100 mM KCl, 2 µM EcFsaB, 2 µM EcGldA, 0.4 mM NADH, anaerobic glove box, substrate 1,5-AM-6P at various concentrations. On the procedure: as §1, §2, §3

With `O=P(O)(O)OC[C@H]1OC[C@H](O)[C@@H](O)[C@@H]1O` [1,5-AG-6P, 1,5-anhydroglucitol-6-phosphate], in series [1], the Michaelis constant (Km) stood at 36.5 ± 6.66 mM and the kcat is 43.38 ± 2.96 s^-1/LpYbiW.
As to `O=P(O)(O)OC[C@H]1OC[C@@H](O)[C@@H](O)[C@@H]1O` [1,5-AM-6P, 1,5-anhydromannitol-6-phosphate], in series [2], the kcat was found to be 33.47 ± 0.79 s^-1/EcPflD.

B1: Escherichia coli strain K12 1,5-anhydromannitol-6-phosphate isomerase EcPflD (Uniprot P32674), SEQ ID NO: 98 (Escherichia coli K-12) (protein)
chain: T1 sequence (P32674 1-765)
As to B1, the Km in series [3] was 1.33 ± 0.12 mM.

In general, Km refers to the concentration of substrate that gives half-maximal velocity.

Source of the values: EP4818317A1, “POLYPEPTIDE FOR BIOSYNTHESIS OF 1,2-PROPANEDIOL AND USE THEREOF” (Tianjin University, priority 2023, dated 2025).
